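How tested: cells in 96-well plates exposed to compound for 48 hours at five concentrations. The concentration for 50% growth inhibition is given as GI50. At the TGI there is no net growth.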
Assays:
Assay in all cases: growth of human tumour cells (NCI), 48 h
ACHN renal = test system: ACHN renal
CCRF-CEM leukemia = test system: CCRF-CEM leukemia
EKVX NSCLC = test system: EKVX NSCLC
IGROV1 ovarian = test system: IGROV1 ovarian
KM12 colon = test system: KM12 colon
MCF7 breast = test system: MCF7 breast
OVCAR-8 ovarian = test system: OVCAR-8 ovarian
SW-620 colon = test system: SW-620 colon
UO-31 renal = test system: UO-31 renal
HCC-2998 colon = test system: HCC-2998 colon

SMILES	TGI (ACHN renal) [µM]	TGI (CCRF-CEM leukemia) [µM]	TGI (EKVX NSCLC) [µM]	TGI (IGROV1 ovarian) [µM]	TGI (KM12 colon) [µM]	TGI (MCF7 breast) [µM]	TGI (OVCAR-8 ovarian) [µM]	TGI (SW-620 colon) [µM]	TGI (UO-31 renal) [µM]	TGI (HCC-2998 colon) [µM]	GI50 (ACHN renal) [µM]	GI50 (CCRF-CEM leukemia) [µM]	GI50 (EKVX NSCLC) [µM]	GI50 (IGROV1 ovarian) [µM]	GI50 (KM12 colon) [µM]	GI50 (MCF7 breast) [µM]	GI50 (OVCAR-8 ovarian) [µM]	GI50 (SW-620 colon) [µM]	GI50 (UO-31 renal) [µM]	GI50 (HCC-2998 colon) [µM]
COc1cc(O)c2c(O)c3c(c4c2c1[C@]1(C4)C(C)=CCCC1(C)C)[C@H](O)[C@@]1(O)CC(=O)C(C(N)=O)=C(O)[C@@]1(O)C3=O	1.19	0.185	1.06	1.94	1.24	1.23	1.73	1.2	1.27											
CS(=O)(=O)NNS(=O)(=O)c1cccc([N+](=O)[O-])c1	> 100	> 100	> 100	> 100	> 100		> 100	> 100	> 100	> 100										
COC(=O)C1=C2CCC(=O)[C@@]2(C)C(OC(C)=O)C=CC1 (some centres undefined)	> 100	> 100	> 100	> 100	> 100		> 100	> 100	> 100	> 100										
Cc1cc(NS(=O)(=O)c2ccc(N=Nc3cc(N=Nc4ccc(S(=O)(=O)Nc5cc(C)nc(C)n5)cc4)c4c(NC(=O)C(Cl)Cl)cccc4c3OC(=O)C(Cl)Cl)cc2)nc(C)n1 (tested in a mixture with another compound)	56.7		53.5	53.2	31.6		> 100	40.4	37.4	35.8										
CC1CC2(C)ON=C(c3ccccc3)N2c2ccccc2S1 (centres undefined)		77.6			42.5	79					32.8	28.1	29.4	53	17.5	31.4	37.3	39.3	28.1	
C/C(=C\C(C)COCc1ccccc1)[C@H](COCc1ccccc1)OCc1ccccc1 (some centres undefined)	> 100	> 100	> 100	> 100	> 100		> 100	> 100	> 100	> 100										
O=S(=O)(O)O.[NH-]C1CCCCC1[NH-].[Pt+2] (centres undefined)	> 100	> 100	> 100	> 100	> 100		> 100	> 100	> 100	> 100	47.8	17.6	> 100	> 100	> 100		80.1	5.33	> 100	> 100
O=c1cccccc1NCCOCCNc1cccccc1=O	> 100	> 100	> 100	> 100	> 100		> 100	> 100	> 100	> 100										
Cc1cc2c(cc1Cl)SC1=CC(=O)N(c3ccccc3)C1=NS2(=O)=O	> 100	95.5	> 100	> 100	67.3	> 100	> 100	> 100	> 100		26.6	24.8	> 100	53.9	26.1	39.4	57.1	33.1	54	
COc1ccc(C(=O)C(c2ccc(OC)cc2)C2(O)C(=O)Nc3ccccc32)cc1 (centres undefined)	> 100	> 100	> 100	> 100	> 100			> 100	> 100											
CCC[CH2][Sn]1([CH2]CCC)[O]C(=O)c2cc(I)cc(I)c2[O]1	2.63	0.79	3.4	3.36	2.99		3.01	1.57	2.82	2.7	1.35	0.22	1.35	1.81	1.61		1.41	0.367	1.49	1.37
Cc1ccc(NC(=O)CCC(CC(=O)C(C)(C)C)=NNC(=O)C(=O)NN)cc1C	> 100	> 100	> 100	> 100	> 100		> 100	> 100	> 100	> 100										
O=C(O)C(CP(=O)(O)O)=C(Cl)Cl	> 100	> 100	> 100	> 100			> 100	> 100	> 100	> 100										
CC(=O)OC(/C=C1/C=CC(=O)O1)COC(=O)c1ccccc1 (centres undefined)	> 31.2	> 31.2	> 31.2	> 31.2	> 31.2		> 31.2	> 31.2	> 31.2	> 31.2										
CCOC12OC3=C(CC1CC1=C(CCC1=O)O2)C(=O)CC3 (centres undefined)		> 100	> 100	> 100	> 100		> 100	> 100	> 100											
COC(=O)/C=C1/CCC2[C@@H](C(=O)CC3[C@]2(C)CCC[C@@]3(C)C(=O)OC)C1C (some centres undefined)	24.2	17.6	42.3	43.6	27		34.9	22.5	37.5	39.8										
O=c1/c(=C/c2cccc([N+](=O)[O-])c2)sc2nc3ccccc3n12	> 100	> 100	> 100		> 100		> 100	> 100	> 100	> 100										
Cc1ccc(NC(=O)C(=O)C2C(=O)N(c3ccccc3)N=C2N)cc1C (centres undefined)	> 100	> 100	> 100	> 100	> 100		> 100	> 100	> 100	> 100										
CCOC(=O)C12CCCC1(O)N(NC(=O)c1ccccc1)C(C)=C2C(=O)OC (centres undefined)	> 100	> 100	> 100	> 100	> 100		> 100	> 100	> 100	> 100										
